Results as given in PubChem BioAssay AID1963865 (Molecular Pharmacology Branch, DTP, NCI, 2024).

Tested on: KRAS PDC multicell spheroid viability
Test: Anticancer human tumor 825966-067-R-J1-PDC patient-derived colon carcinoma cell line growth inhibition [KRAS2]
Details: for IC50: curve of first compound; for viability, T/C: stronger effect = lower value
In short: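 KRAS-mutant tumor cells were grown as spheroids with HUVEC endothelial cells and human MSCs as stroma. Targeted agents were tested alone and with KRAS pathway inhibitors. Doses started at or near clinical Cmax, or 10 microM, descending half-log.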

[1] = second compound 0.0316 µM, first compound 0.0316 µM
[2] = second compound 0.0316 µM, first compound 0.1 µM
[3] = second compound 0.1 µM, first compound 0.0316 µM
[4] = second compound 0.1 µM, first compound 0.1 µM
[5] = second compound 0.316 µM, first compound 0.0316 µM
[6] = second compound 0.316 µM, first compound 0.1 µM
[7] = second compound 1 µM, first compound 0.0316 µM
[8] = second compound 1 µM, first compound 0.1 µM
[9] = second compound 3.16 µM, first compound 0.0316 µM
[10] = second compound 3.16 µM, first compound 0.1 µM
[11] = second compound 0.0316 µM, first compound 0.316 µM
[12] = second compound 0.0316 µM, first compound 1 µM
[13] = second compound 0.0316 µM, first compound 3.16 µM
[14] = second compound 0.0316 µM, first compound 10 µM
[15] = second compound 0.1 µM, first compound 0.316 µM
[16] = second compound 0.1 µM, first compound 1 µM
[17] = second compound 0.1 µM, first compound 3.16 µM
[18] = second compound 0.1 µM, first compound 10 µM
[19] = second compound 0.316 µM, first compound 0.316 µM
[20] = second compound 0.316 µM, first compound 1 µM
[21] = second compound 0.316 µM, first compound 3.16 µM
[22] = second compound 0.316 µM, first compound 10 µM
[23] = second compound 1 µM, first compound 0.316 µM
[24] = second compound 1 µM, first compound 1 µM
[25] = second compound 1 µM, first compound 3.16 µM
[26] = second compound 1 µM, first compound 10 µM
[27] = second compound 3.16 µM, first compound 0.316 µM
[28] = second compound 3.16 µM, first compound 1 µM
[29] = second compound 3.16 µM, first compound 3.16 µM
[30] = second compound 3.16 µM, first compound 10 µM
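Further: spheroids exposed to compounds for 7 days.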
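Wherever viability, T/C is given: 100% = DMSO vehicle control viability.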

| SMILES | IC50 (second compound 0.0316 µM) | IC50 (second compound 0.1 µM) | IC50 (second compound 0.316 µM) | IC50 (second compound 1 µM) | IC50 (second compound 3.16 µM) | viability, T/C [1] | viability, T/C [2] | viability, T/C [3] | viability, T/C [4] | viability, T/C [5] | viability, T/C [6] | viability, T/C [7] | viability, T/C [8] | viability, T/C [9] | viability, T/C [10] | viability, T/C [11] | viability, T/C [12] | viability, T/C [13] | viability, T/C [14] | viability, T/C [15] | also measured |
| --- | --- | --- | --- | --- | --- | --- | --- | --- | --- | --- | --- | --- | --- | --- | --- | --- | --- | --- | --- | --- | --- |
| CC(C)n1nc(-c2ccc3oc(N)nc3c2)c2c(N)ncnc21 + C=CC(=O)N1CCN(c2nc(OCC3CCCN3C)nc3c2CCN(c2cccc4cccc(C)c24)C3)CC1CC#N | > 100 nM | > 100 nM | > 100 nM | > 100 nM | 9.07 nM | 113% | 141% | 113% | 108% | 115% | 94.7% | 98.7% | 85.2% | 64.4% | 31.2% | – | – | – | – | – | viability, T/C (second compound 0.0316 µM, first compound 0.000316 µM): 111%; viability, T/C (second compound 0.0316 µM, first compound 0.001 µM): 86.4%; viability, T/C (second compound 0.0316 µM, first compound 0.00316 µM): 116%; viability, T/C (second compound 0.0316 µM, first compound 0.01 µM): 153%; viability, T/C (second compound 0.1 µM, first compound 0.000316 µM): 81.6%; viability, T/C (second compound 0.1 µM, first compound 0.001 µM): 106%; viability, T/C (second compound 0.1 µM, first compound 0.00316 µM): 119%; viability, T/C (second compound 0.1 µM, first compound 0.01 µM): 162%; viability, T/C (second compound 0.316 µM, first compound 0.000316 µM): 92%; viability, T/C (second compound 0.316 µM, first compound 0.001 µM): 97.3%; viability, T/C (second compound 0.316 µM, first compound 0.00316 µM): 129%; viability, T/C (second compound 0.316 µM, first compound 0.01 µM): 154%; viability, T/C (second compound 1 µM, first compound 0.000316 µM): 89.3%; viability, T/C (second compound 1 µM, first compound 0.001 µM): 108%; viability, T/C (second compound 1 µM, first compound 0.00316 µM): 105%; viability, T/C (second compound 1 µM, first compound 0.01 µM): 154%; viability, T/C (second compound 3.16 µM, first compound 0.000316 µM): 106%; viability, T/C (second compound 3.16 µM, first compound 0.001 µM): 84.9%; viability, T/C (second compound 3.16 µM, first compound 0.00316 µM): 116%; viability, T/C (second compound 3.16 µM, first compound 0.01 µM): 39.9% |
| CC1(C)CCC(CN2CCN(c3ccc(C(=O)NS(=O)(=O)c4ccc(NCC5CCOCC5)c([N+](=O)[O-])c4)c(Oc4cnc5[nH]ccc5c4)c3)CC2)=C(c2ccc(Cl)cc2)C1 + C=CC(=O)N1CCN(c2nc(OCC3CCCN3C)nc3c2CCN(c2cccc4cccc(C)c24)C3)CC1CC#N | 1850 nM | 1790 nM | 1770 nM | 1810 nM | 347 nM | 104% | 96% | 96.7% | 72% | 93.8% | 88.8% | 98.6% | 103% | 89% | 78.2% | 84.3% | 93% | 12.6% | 0.73% | 98.6% | viability, T/C [16]: 96.3%; viability, T/C [17]: 9.74%; viability, T/C [18]: 5.69%; viability, T/C [19]: 87.9%; viability, T/C [20]: 93.4%; viability, T/C [21]: 8.01%; viability, T/C [22]: 5.23%; viability, T/C [23]: 100%; viability, T/C [24]: 104%; viability, T/C [25]: 1.8%; viability, T/C [26]: 0.52%; viability, T/C [27]: 54.7%; viability, T/C [28]: 10.2%; viability, T/C [29]: 0.3%; viability, T/C [30]: 2.95% |
| COc1cc2nccc(Oc3ccc(NC(=O)C4(C(=O)Nc5ccc(F)cc5)CC4)cc3)c2cc1OC + C=CC(=O)N1CCN(c2nc(OCC3CCCN3C)nc3c2CCN(c2cccc4cccc(C)c24)C3)CC1CC#N | 1640 nM | 1800 nM | 1660 nM | 1590 nM | 688 nM | 96.4% | 106% | 117% | 97.3% | 122% | 91.6% | 103% | 78.7% | 86.1% | 83.6% | 84% | 83.1% | 4.36% | 8.53% | 74.1% | viability, T/C [16]: 86.3%; viability, T/C [17]: 15.3%; viability, T/C [18]: 7.78%; viability, T/C [19]: 107%; viability, T/C [20]: 79.7%; viability, T/C [21]: 12%; viability, T/C [22]: 7.79%; viability, T/C [23]: 78.1%; viability, T/C [24]: 81.3%; viability, T/C [25]: 3.62%; viability, T/C [26]: 2%; viability, T/C [27]: 108%; viability, T/C [28]: 29.5%; viability, T/C [29]: 0.34%; viability, T/C [30]: 0.17% |
